Experimental data published in patent publication US20250263376A1, “(E)-N-CINNAMOYLAMINOALKANOLS WITH MELANOGENESIS INHIBITORY ACTIVITY” (Uniwersytet Jagiellonski, priority 2024, published 2025).
Read-outs that look alike come from different tables or passages of the source.

Experiments:
[1] = cream, 7-day application before UV exposure, compared to untreated skin; literature [8]; cited from earlier work
tyrosinase [2] = conditions: literature [6]; read-out: IC50, tyrosinase diphenolase activity; cited from earlier work
[3] = system: Balb/c 3T3 murine fibroblast cell line; test: Phototoxicity, neutral red uptake in Balb/c 3T3 fibroblasts
Method: d) Phototoxicity Assessment Using the Balb/c 3T3 Murine Fibroblast Cell Line
Balb/c 3T3 cells, which are an immortalized murine fibroblast cell line, were purchased at ATTC and cultured in the medium recommended by the manufacturer (DMEM GlutaMAX, newborn calf serum (BCS), antibiotics). After multiplication, cells were placed in 96-well plates, which were incubated for 24 hours, after which all wells of the plates were washed with 150 μL of balanced salt solution (HBSS). Then, after drying the plates, 100 μL of a solution of the tested compounds in HBSS with 2% FBS was added to each well and incubated for an hour. After this time, some of the plates were irradiated using the Suntest CPS+sunlight simulator from Atlas with appropriate filters cutting off radiation with a wavelength <320 nm (UVA radiation intensity 5 J/cm^2). The second part of the plates was placed in radiation-free conditions for the same period of time. After the exposure time, the liquid was removed from all plates and the wells were washed twice with 150 μL of HBSS, then supplemented with fresh culture medium and incubated for 24 hours in an incubator (37° C., 5% CO2). Viability was assessed in the neutral red uptake test, which is based on the ability of the dye to penetrate only into living cells. Dye uptake was confirmed by absorbance measurement at 540 nm. […] The appropriate coefficients were also calculated: mean phototoxic effect (MPE) and photoirritation factor (PIF). PIF is the ratio of the IC50 values of unirradiated to irradiated cells, while MPE is based on the comparison of concentration-response curves.

[4] = system: reconstituted human epidermis EpiDerm; conditions: 21 h, 0.01 %
Method: Phototoxicity Studies in a Model of Reconstructed Human Epidermis.
An epidermis with an area of 0.6 cm^2 was used. After receiving the tissue, the inserts were transferred to fresh medium and incubated in an incubator (5% CO2, 37° C.). All work during epidermis culture and application of the tested compounds and formulations was carried out in a laminar air flow chamber, using aseptic principles and sterile reagents and utensils. […] The applied solutions and formulation were spread on the surface of the inserts using a sterile glass bulb headed Pasteur pipette. The plates were incubated in the incubator for 21 hours, after which the inserts were transferred to new 6-well plates with 0.9 mL DBPS. 1 plate was exposed to UVA radiation at a dose of 6 J/cm^2 using a solar light simulator (Solar Simulator, Atlas) as its source (+UVA plate). The second plate was placed in a dark place outside the incubator for the same period of time (−UVA plate). After exposure, inserts from both plates were rinsed with DPBS, dried with a sterile cotton bud and placed in new plates containing 0.9 mL of fresh growth medium and incubated for 21 hours. […] After this time, the formed formazan was extracted into isopropanol and the absorbance of all samples was read at 270 nm.

tyrosinase [5] = conditions: literature [11], cited from earlier work
[6] = system: human reconstructed epidermis Episkin; test: Skin irritation test in reconstructed human epidermis Episkin; assay type: cell-based; conditions: 15 min exposure
Excerpt: Skin Irritation Tests in a Reconstructed Human Epidermis Model (Episkin™)

O=C(O)C=Cc1ccc(O)cc1 [4-Hydroxycinnamic acid]
inhibition of erythema formation [1]: 77%
IC50 (tyrosinase [2]): 500 µM

CN(C)CCCN1c2ccccc2Sc2ccc(Cl)cc21 [Chlorpromazine, reference compound]
phototoxic potential [3]: clearly indicate its phototoxic potential
MPE (mean phototoxic effect) ([3]; mouse, 1 h): 0.499
PIF (photoirritation factor) ([3]; mouse, 1 h): 25.618
Viability [% relative to water] ± SD, +UVA [4]: 26.97 ± 6.05 % relative to water
Viability [% relative to water] ± SD, −UVA [4]: 99.52 ± 9.41 % relative to water

CCOC(=O)[C@H](Cc1ccccc1)NC(=O)/C=C/c1ccc(O)c(OC)c1 [N-[3-(4-hydroxy-3-methoxyphenyl)-1-oxo-2-propen-1-yl]-L-phenylalanine ethyl ester]
type of tyrosinase inhibition (tyrosinase [5]): mixed type of inhibition
IC50 (tyrosinase [5]; read-out: IC50, tyrosinase inhibition): 0.185 ± 0.005 µM

CCCCCCCCCCCCOS(=O)(=O)[O-].[Na+] [SDS, sodium dodecyl sulphate]
IL-1α concentration in the culture medium ([6]; 42 h incubation, compounds as PEG400 solutions 26 mg/cm^2, SDS 5% aqueous): >250 pg/mL
tissue viability ([6]; compared to the negative control (PBS and PEG400), 5% aqueous SDS): 23.8%
